Converted amounts (≈) assume the structure as drawn.
Key:
[1] = tested on: Staphylococcus epidermidis; assay: Antibacterial activity against Staphylococcus epidermidis ATCC 49134 after 18 hrs by serial microdilution method in presence of Na+; assay type: functional; conditions: ATCC 49134, 18 h
Staphylococcus aureus [2] = assay: Antibacterial activity against Staphylococcus aureus ATCC 25923 after 18 hrs by serial microdilution method in presence of Li+; assay type: functional; conditions: ATCC 25923, 18 h
[3] = tested on: Staphylococcus epidermidis; assay: Antibacterial activity against Staphylococcus epidermidis ATCC 12228 after 18 hrs by serial microdilution method in presence of Li+; assay type: functional; conditions: ATCC 12228, 18 h
[4] = Solubility of the compound in water at pH 7; assay type: physicochemical
Staphylococcus aureus [5] = assay: Antibacterial activity against Staphylococcus aureus ATCC 25923 after 18 hrs by serial microdilution method in presence of Na+; assay type: functional; conditions: ATCC 25923, 18 h
Staphylococcus aureus [6] = assay: Antibacterial activity against Staphylococcus aureus ATCC 6538 after 18 hrs by serial microdilution method; assay type: functional; conditions: ATCC 6538, 18 h
Staphylococcus aureus [7] = assay: Antibacterial activity against Staphylococcus aureus ATCC 4163 after 18 hrs by serial microdilution method; assay type: functional; conditions: ATCC 4163, 18 h
Staphylococcus aureus [8] = assay: Antibacterial activity against Staphylococcus aureus ATCC 4163 after 18 hrs by serial microdilution method in presence of Li+; assay type: functional; conditions: ATCC 4163, 18 h
Staphylococcus aureus [9] = assay: Antibacterial activity against Staphylococcus aureus ATCC 25923 after 18 hrs by serial microdilution method; assay type: functional; conditions: ATCC 25923, 18 h
[10] = Octanol-water partition coefficient, log P of the compound by UV-vis method; assay type: physicochemical
[11] = tested on: Staphylococcus epidermidis; assay: Antibacterial activity against Staphylococcus epidermidis ATCC 49134 after 18 hrs by serial microdilution method; assay type: functional; conditions: ATCC 49134, 18 h
[12] = tested on: Staphylococcus epidermidis; assay: Antibacterial activity against Staphylococcus epidermidis ATCC 12228 after 18 hrs by serial microdilution method; assay type: functional; conditions: ATCC 12228, 18 h
Staphylococcus aureus [13] = assay: Antibacterial activity against Staphylococcus aureus ATCC 4163 after 18 hrs by serial microdilution method in presence of Na+; assay type: functional; conditions: ATCC 4163, 18 h
Staphylococcus aureus [14] = assay: Antibacterial activity against Staphylococcus aureus ATCC 6538 after 18 hrs by serial microdilution method in presence of Na+; assay type: functional; conditions: ATCC 6538, 18 h
Staphylococcus aureus [15] = assay: Antibacterial activity against Staphylococcus aureus ATCC 6538 after 18 hrs by serial microdilution method in presence of Li+; assay type: functional; conditions: ATCC 6538, 18 h
[16] = tested on: Staphylococcus epidermidis; assay: Antibacterial activity against Staphylococcus epidermidis ATCC 49134 after 18 hrs by serial microdilution method in presence of Li+; assay type: functional; conditions: ATCC 49134, 18 h
[17] = tested on: Staphylococcus epidermidis; assay: Antibacterial activity against Staphylococcus epidermidis ATCC 12228 after 18 hrs by serial microdilution method in presence of Na+; assay type: functional; conditions: ATCC 12228, 18 h
[18] = Octanol-water partition coefficient, log P of the compound by UV-vis method in presence of Na+; assay type: physicochemical
[19] = Solubility of the compound in water at pH 7 in presence of Na+; assay type: physicochemical
[20] = Solubility of the compound in water at pH 7 in presence of Li+; assay type: physicochemical
[21] = Octanol-water partition coefficient, log P of the compound by UV-vis method in presence of Li+; assay type: physicochemical
[22] = tested on: Staphylococcus epidermidis; assay: Antibacterial activity against Staphylococcus epidermidis ATCC 12228 after 18 hrs by serial microdilution method in presence of histamine; assay type: functional; conditions: ATCC 12228, 18 h
[23] = Octanol-water partition coefficient, log P of the compound by UV-vis method in presence of histamine; assay type: physicochemical
Staphylococcus aureus [24] = assay: Antibacterial activity against Staphylococcus aureus ATCC 4163 after 18 hrs by serial microdilution method in presence of 2-chlorobenzylamine; assay type: functional; conditions: ATCC 4163, 18 h
[25] = tested on: Staphylococcus epidermidis; assay: Antibacterial activity against Staphylococcus epidermidis ATCC 49134 after 18 hrs by serial microdilution method in presence of 4-fluorobenzylamine; assay type: functional; conditions: ATCC 49134, 18 h
Staphylococcus aureus [26] = assay: Antibacterial activity against Staphylococcus aureus ATCC 4163 after 18 hrs by serial microdilution method in presence of 4-fluorobenzylamine; assay type: functional; conditions: ATCC 4163, 18 h
[27] = Solubility of the compound in water at pH 7 in presence of histamine; assay type: physicochemical
Staphylococcus aureus [28] = assay: Antibacterial activity against Staphylococcus aureus ATCC 25923 after 18 hrs by serial microdilution method in presence of isoniazid; assay type: functional; conditions: ATCC 25923, 18 h
[29] = tested on: Staphylococcus epidermidis; assay: Antibacterial activity against Staphylococcus epidermidis ATCC 49134 after 18 hrs by serial microdilution method in presence of histamine; assay type: functional; conditions: ATCC 49134, 18 h
Staphylococcus aureus [30] = assay: Antibacterial activity against Staphylococcus aureus ATCC 6538 after 18 hrs by serial microdilution method in presence of 2-chlorobenzylamine; assay type: functional; conditions: ATCC 6538, 18 h
Staphylococcus aureus [31] = assay: Antibacterial activity against Staphylococcus aureus ATCC 6538 after 18 hrs by serial microdilution method in presence of isoniazid; assay type: functional; conditions: ATCC 6538, 18 h
[32] = tested on: Staphylococcus epidermidis; assay: Antibacterial activity against Staphylococcus epidermidis ATCC 12228 after 18 hrs by serial microdilution method in presence of isoniazid; assay type: functional; conditions: ATCC 12228, 18 h
[33] = tested on: Staphylococcus epidermidis; assay: Antibacterial activity against Staphylococcus epidermidis ATCC 49134 after 18 hrs by serial microdilution method in presence of isoniazid; assay type: functional; conditions: ATCC 49134, 18 h
Staphylococcus aureus [34] = assay: Antibacterial activity against Staphylococcus aureus ATCC 6538 after 18 hrs by serial microdilution method in presence of 4-fluorobenzylamine; assay type: functional; conditions: ATCC 6538, 18 h
[35] = tested on: Staphylococcus epidermidis; assay: Antibacterial activity against Staphylococcus epidermidis ATCC 12228 after 18 hrs by serial microdilution method in presence of 2-chlorobenzylamine; assay type: functional; conditions: ATCC 12228, 18 h
Staphylococcus aureus [36] = assay: Antibacterial activity against Staphylococcus aureus ATCC 6538 after 18 hrs by serial microdilution method in presence of histamine; assay type: functional; conditions: ATCC 6538, 18 h
Staphylococcus aureus [37] = assay: Antibacterial activity against Staphylococcus aureus ATCC 4163 after 18 hrs by serial microdilution method in presence of histamine; assay type: functional; conditions: ATCC 4163, 18 h
Staphylococcus aureus [38] = assay: Antibacterial activity against Staphylococcus aureus ATCC 25923 after 18 hrs by serial microdilution method in presence of histamine; assay type: functional; conditions: ATCC 25923, 18 h
[39] = tested on: Staphylococcus epidermidis; assay: Antibacterial activity against Staphylococcus epidermidis ATCC 12228 after 18 hrs by serial microdilution method in presence of 4-fluorobenzylamine; assay type: functional; conditions: ATCC 12228, 18 h
Staphylococcus aureus [40] = assay: Antibacterial activity against Staphylococcus aureus ATCC 4163 after 18 hrs by serial microdilution method in presence of isoniazid; assay type: functional; conditions: ATCC 4163, 18 h
Staphylococcus aureus [41] = assay: Antibacterial activity against Staphylococcus aureus ATCC 25923 after 18 hrs by serial microdilution method in presence of 2-chlorobenzylamine; assay type: functional; conditions: ATCC 25923, 18 h
Staphylococcus aureus [42] = assay: Antibacterial activity against Staphylococcus aureus ATCC 25923 after 18 hrs by serial microdilution method in presence of 4-fluorobenzylamine; assay type: functional; conditions: ATCC 25923, 18 h
[43] = tested on: Staphylococcus epidermidis; assay: Antibacterial activity against Staphylococcus epidermidis ATCC 49134 after 18 hrs by serial microdilution method in presence of 2-chlorobenzylamine; assay type: functional; conditions: ATCC 49134, 18 h

CO[C@H]1/C=C/O[C@@]2(C)Oc3c(C)c(O)c4c(O)c(c(CNCC5COCCOCCOCCOCCO5)c(O)c4c3C2=O)NC(=O)/C(C)=C\C=C\[C@H](C)[C@H](O)[C@@H](C)[C@@H](O)[C@@H](C)[C@H](OC(C)=O)[C@@H]1C (some centres not stated)
MIC [1]: 4 µg/mL
MIC (Staphylococcus aureus [2]): > 4 µg/mL
MIC [3]: 2 µg/mL
solubility [4]: 120 µg/mL (≈ 125 µM)
MIC (Staphylococcus aureus [5]): > 4 µg/mL
MIC (Staphylococcus aureus [6]): 2 µg/mL (≈ 2.09 µM)
MIC (Staphylococcus aureus [7]): 4 µg/mL (≈ 4.17 µM)
MIC (Staphylococcus aureus [8]): 4 µg/mL
MIC (Staphylococcus aureus [9]): > 4 µg/mL
logP [10]: 1.18
MIC [11]: 2 µg/mL (≈ 2.09 µM)
MIC [12]: 2 µg/mL (≈ 2.09 µM)
MIC (Staphylococcus aureus [13]): > 4 µg/mL
MIC (Staphylococcus aureus [14]): 2 µg/mL
MIC (Staphylococcus aureus [15]): > 4 µg/mL
MIC [16]: 2 µg/mL
MIC [17]: 4 µg/mL

CO[C@H]1/C=C/O[C@@]2(C)Oc3c(C)c(O)c4c(O)c(c(CNCC5COCCOCCOCCOCCOCCO5)c(O)c4c3C2=O)NC(=O)/C(C)=C\C=C\[C@H](C)[C@H](O)[C@@H](C)[C@@H](O)[C@@H](C)[C@H](OC(C)=O)[C@@H]1C (some centres not stated)
MIC [1]: 1 µg/mL
MIC (Staphylococcus aureus [2]): 2 µg/mL
MIC [3]: 1 µg/mL
solubility [4]: 1000 µg/mL (≈ 997 µM)
MIC (Staphylococcus aureus [5]): 2 µg/mL
MIC (Staphylococcus aureus [6]): 1 µg/mL (≈ 0.997 µM)
MIC (Staphylococcus aureus [7]): 1 µg/mL (≈ 0.997 µM)
MIC (Staphylococcus aureus [8]): 1 µg/mL
logP [18]: 1.13
solubility [19]: 600 µg/mL
MIC (Staphylococcus aureus [9]): 2 µg/mL (≈ 1.99 µM)
logP [10]: 1.76
solubility [20]: 670 µg/mL
MIC [11]: 1 µg/mL (≈ 0.997 µM)
MIC [12]: 1 µg/mL (≈ 0.997 µM)
MIC (Staphylococcus aureus [13]): 2 µg/mL
logP [21]: 1.09
MIC (Staphylococcus aureus [14]): 2 µg/mL
MIC (Staphylococcus aureus [15]): 1 µg/mL
MIC [16]: 1 µg/mL
MIC [17]: 1 µg/mL

CO[C@H]1/C=C/O[C@@]2(C)Oc3c(C)c(O)c4c(O)c(c(CNc5ccc6c(c5)OCCOCCOCCOCCOCCO6)c(O)c4c3C2=O)NC(=O)/C(C)=C\C=C\[C@H](C)[C@H](O)[C@@H](C)[C@@H](O)[C@@H](C)[C@H](OC(C)=O)[C@@H]1C
MIC [22]: 1.25 µg/mL
logP [23]: 0.69
MIC (Staphylococcus aureus [24]): 0.25 µg/mL
MIC [25]: 0.25 µg/mL
MIC (Staphylococcus aureus [26]): 0.25 µg/mL
solubility [4]: 110 µg/mL (≈ 106 µM)
solubility [27]: 410 µg/mL
MIC (Staphylococcus aureus [28]): 1 µg/mL
MIC [29]: 0.125 µg/mL
MIC (Staphylococcus aureus [30]): 0.25 µg/mL
MIC (Staphylococcus aureus [31]): 1 µg/mL
MIC (Staphylococcus aureus [6]): 2 µg/mL (≈ 1.93 µM)
MIC (Staphylococcus aureus [7]): 2 µg/mL (≈ 1.93 µM)
MIC [32]: 0.5 µg/mL
MIC [33]: 0.5 µg/mL
MIC (Staphylococcus aureus [9]): 2 µg/mL (≈ 1.93 µM)
MIC (Staphylococcus aureus [34]): 0.25 µg/mL
MIC [35]: 0.25 µg/mL
logP [10]: 0.53
MIC [11]: 0.5 µg/mL (≈ 0.482 µM)
MIC (Staphylococcus aureus [36]): 0.125 µg/mL
MIC [12]: 0.5 µg/mL (≈ 0.482 µM)
MIC (Staphylococcus aureus [37]): 0.125 µg/mL
MIC (Staphylococcus aureus [38]): 0.125 µg/mL
MIC [39]: 0.25 µg/mL
MIC (Staphylococcus aureus [40]): 1 µg/mL
MIC (Staphylococcus aureus [41]): 0.25 µg/mL
MIC (Staphylococcus aureus [42]): 0.25 µg/mL
MIC [43]: 0.25 µg/mL

Source: ChEMBL document CHEMBL3611969, “The effect of complexation of 3-formylrifamycin SV macrocyclic ether derivatives with metal cations and small nitrogen-containing organic molecules on antibacterial activity against S. aureus and S. epidermidis” (Bioorg Med Chem Lett, 2015)
